# According to patent US10442767B2 (priority 2012, dated 2019):
# Like-named read-outs stand apart in the source and are kept apart here.
# Experiments:
# [1] = target: T1, Shaker K^+ channel (Drosophila melanogaster, UniProt P08510); experiment: Inhibition of K+ currents, cut-open oocyte voltage clamp; format: cell-based, Xenopus oocytes; conditions: for fold less potent than 4-AP: cut-open oocyte voltage clamp (Example 2); for IC50: relative K+ current at +20 mV, Xenopus oocytes, Hill fit, read-out: half-maximal inhibitory concentration (IC50)
# T1 construct: injecting approximately 50 ng of WT Shaker cRNA (kit Ambion) into the oocytes; expressed in transfected cells; host or cells: Xenopus laevis oocytes (cRNA injection)
# Description: Using the cut-open oocyte voltage clamp studies to screen compounds to determine their potency towards Kv1 cannels was previously described in Starace and Bezanilla et al. (2004).
# For this experiment, Shaker K^+ channel from D. […] was chosen as the archetypical voltage gated K^+ channel that gives name to the family.
# Electrophysiology studies are conducted according to the protocol by Stefani and Bezanilla (1998). Briefly, K^+ channel Shaker cRNA is injected into Xenopus oocytes 24 h after their surgical extraction from adult frogs. 1-5 days after injection channel currents are recorded using the cut-open voltage-clamp.
# K^+ channel expression in Xenopus oocytes membranes was achieved by injecting approximately 50 ng of WT Shaker cRNA (kit Ambion) into the oocytes 24 h after surgical extraction from adult frogs and collagenase treatment. Injected oocytes were maintained in a standard oocytes solution (100 mM NaCl, 5 mM KCl, 2 mM CaCl2, and 10 mM Hepes at pH 7.5) at 16.5° C. and recordings were performed 1-3 days after injection.
# K^+ currents were recorded from oocytes expressing Shaker K^+ channels using the cut-open voltage clamp technique as described by Stefani and Bezanilla. The internal solution was 120 mM KOH, 20 mM HEPES-methyl sulfonate (MES) pH 7.4, 2 mM EGTA. The external solution was 12 mM KOH, 105 mM N-methyl-D-glucamine-MES pH 7.4, 20 mM HEPES, 2 mM CaOH. […] After application, cells were voltage-clamped at least 5 min at 0 mV, then voltage-clamped at −80 mV for 1-2 min. K^+ currents were generated by applying series of 50 ms pulses from −70 mV to +40 mV in increments of 10 mV. […] Analysis of the traces was done using an in-house software. The half-maximal inhibitory concentration (IC50) for each drug was calculated by plotting the relative K^+ current vs. concentration and fitted to the Hill equation using the software Origin.
# (§1) EC50=10^<log EC50>; where <log EC50>=average of log EC50 values from all experiments with the same drug. 95% C.I.=[Upper Limit . . . Lower Limit]; where U.L.=10^(log EC50+s.d.) and L.L.=10^(log EC50−s.d.). The half-life (t1/2) in the stability and pharmacokinetic experiments was calculated by fitting the data to the equation Ct=C0*exp(−k*t) where C0=initial concentration, Ct=concentration at time t, and k=ln 2/t1/2. Student t-test was used to compare results and P<0.05 was considered significant.
# [2] = system: hypomyelinated optic nerves from Shiverer mice (shi^−/−); experiment: Compound action potential (CAP) of dissected hypomyelinated optic nerve; format: cell-based, mouse; conditions: for EC50: Mus musculus, hypomyelinated Shiverer optic nerve, 22 °C, Hill fit, read-out: half-maximal effective concentration (EC50) in enhancing the CAP
# Description: (§2) In order to determine if the drugs could also be effective in enhancing compound action potentials (CAP), the effects of these compounds on the CAP of hypomyelinated optic nerves from Shiverer mice (shi^−/−) and control mice (shi^+/−, shi^+/+) were tested. Shiverer mice lack compact myelin in the CNS due to a null mutation of the myelin basic protein gene (MBP).
# optic nerves were dissected from 12-16 week old Shiverer (shi^−/−) and control mice (shi^+/− and shi^+/+). Mice were euthanized by CO2 overdose and the optic nerves were quickly dissected between the eyeball and the optic chiasm. The nerves were incubated for 30 min at 37° C. in oxygenated (95% O2, 5% CO2) aCSF solution (126 mM NaCl, 3 mM KCl, 2 mM MgSO4, 26 mM NaHCO3, 2 mMCaCl2, 10 mM dextrose, pH 7.5) before the experiment.
# compound action potentials (CAP) from hypomyelinated nerves (Shiverer mice, shi^−/−) and myelinated nerves (litermate controls, shi^+/− and shi^+/+) were recorded using suction electrodes as described by Stys et al. Briefly, the dissected optic nerve was placed inside a chamber containing oxygenated (5% CO2, 95% O2) aCSF (300 μL) between two suction electrodes (stimulus and recording electrodes) forming a tight seal on each end. Two additional electrodes were placed in the bath for reference. A supramaximal pulse (250 mV, 20 μs) was applied at the stimulating end of the nerve. The resulting CAP was amplified from the recording electrode using a high impedance low-noise amplifier (EG&G Princeton Applied Research Corporation) and filtered and sampled at 10-100 kHz. […] After each measurement the chamber was washed for 5 min (flow 1 mL/min) with oxygenated aCSF. The study was conducted at 22.2±1.3° C. to allow for slower conduction and the temperature was monitored throughout the experiment. CAP recordings were acquired with a SBC6711 board (Innovative Integration) controlled by in-house written software. Analysis of the traces was done using an in-house software. The half-maximal effective concentration (EC50) for each drug was calculated by plotting the final over initial amplitude vs. concentration and fitted to the Hill equation using Origin.
# as §1, with “The Hill equation used to fit the data from the voltage-clamp and the optic nerve experiments was as follows: y=y0+(yf−y0)*x^n/(k^n+x^n); where n refers to the Hill coefficient (typically 1±0.1) and k refers to EC50 or IC50. y0 and yf refers to the origin and final ordinate values and were fixed at 1±0.1 or 0±0.1 depending on the experiment. EC50=10^<log” for “EC50=10^<log”
# [3] = system: C57Bl/6J mice; experiment: In vivo effects (tremor, seizures) after intraperitoneal injection; design: species or system mouse; conditions: for effects in mice: doses up to 20 times higher; for Effect: N = 5
# Description: A consequence of excessive K^+ channel blockage is the advent of seizures. 4-AP is known to cause seizures in mice at high doses.
# At high doses, 4-AP causes tremors, muscle spasms and seizures.
# 10-week-old female C57Bl/6J mice were given an intraperitoneal injection of the drug under investigation and monitored continuously for 4 h. After 4 h no signs of drug effects could be observed. At least 72 h passed between injections to the same mice.
# [4] = system: normally myelinated optic nerves from control mice (shi^+/−, shi^+/+); experiment: Compound action potential (CAP) of dissected normally myelinated optic nerve; format: cell-based, mouse
# Description: as §2
# optic nerves were dissected from 12-16 week old Shiverer (shi^−/−) and control mice (shi^+/− and shi^+/+). Mice were euthanized by CO2 overdose and the optic nerves were quickly dissected between the eyeball and the optic chiasm. […]
# compound action potentials (CAP) from hypomyelinated nerves (Shiverer mice, shi^−/−) and myelinated nerves (litermate controls, shi^+/− and shi^+/+) were recorded using suction electrodes as described by Stys et al. Briefly, the dissected optic nerve was placed inside a chamber containing oxygenated (5% CO2, 95% O2) aCSF (300 μL) between two suction electrodes (stimulus and recording electrodes) forming a tight seal on each end. […] The study was conducted at 22.2±1.3° C. to allow for slower conduction and the temperature was monitored throughout the experiment. […] The half-maximal effective concentration (EC50) for each drug was calculated by plotting the final over initial amplitude vs. concentration and fitted to the Hill equation using Origin.
# [5] = Parallel Artificial Membrane Permeability Assay (PAMPA); format: in vitro ADME; conditions: porcine polar brain lipids, 0.5 mM, 16 h, n=3
# Description: In this experiment, the inventors included highly permeable verapamil and lowly permeable theophylline as controls.
# Permeability studies were performed as previously described by Sugano, et al., 2011. A 96-well microplate (acceptor compartment) was filled with PBS containing 5% DMSO. A hydrophobic filter plate (donor compartment) was placed atop the buffer-filled plate and the filter surface was impregnated with 5 μL solution of porcine polar brain lipids (Avanti Lipids) in dodecane (1% w/v). 150 μL of the test compounds dissolved in PBS containing 5% DMSO (compound concentration 0.5 mM) was added to the donor compartment and covered. The only barrier between the two compartments was the artificial BBB membrane containing the porcine polar brain lipids. The whole system was incubated for several hours.
# [6] = Pharmacokinetic study after single intravenous dose; format: in vivo, mice (CD-1); conditions: female, CD-1, mouse, mice, i.v. 0.75 mg/kg
# Description: 39 mice (CD-1, 6-weeks old, female) were used in the study. […] The drugs were dissolved in PBS and administered via tail-vein injection to achieve a dose of 0.75 mg/kg of body weight. At specific times post injection (10 min, 30 min, 1 h, 2 h, 4 h and 24 h) blood and brain samples were collected. Blood samples were transferred into tubes containing 5% EDTA, stored on ice, and centrifuged (4° C., 1000 rpm, 15 min). Plasma (upper phase) was transferred to a new tube and stored at −80° C. for further analysis. Brain tissue samples were collected after intracardial perfusion of the mouse. Brain tissue samples were stored at −80° C. for further analysis. Drug quantification in plasma: Briefly, to a 1.5 mL Eppendorf tube containing 50 μl of plasma, 200 μl of ice-cold acetonitrile containing 1,000 ng/ml Progesterone (used as internal standard) was added in order to precipitate the proteins. The sample was vortexed, mixed and centrifuged at 4000×g for 10 min at 4° C. to remove precipitates. 140 μl supernatant was collected and transferred to a 500 μl 96-well polypropylene plate and covered using silicone plate mat. 40 μl of sample was injected in into LC-MS. Using the same sample preparation procedure 11 standard solutions ranging from 50 ng/mL to 100 μg/mL were prepared, analyzed by LC-MS and used as a calibration curve to correlate peak area of the samples to concentration. Drug quantification in brain: the mouse brain was weighted and 1 mL of water per 400 mg of tissue was added. The sample was homogenized using an electric tissue homogenizer. To a 1.5 mL Eppendorf tube containing 50 μl of homogenized sample, 200 μl of ice-cold acetonitrile containing 1000 ng/ml Demeclocycline (used as internal standard) was added in order to precipitate the proteins. The sample was vortexed, mixed and centrifuged at 4000×g for 10 min at 4° C. to remove precipitates. 140 μl supernatant was collected and transferred to a 500 μl 96-well polypropylene plate and covered using silicone plate mat. 40 μl of each sample was injected into LC-MS. Using the same sample preparation procedure 11 standard solutions ranging from 50 ng/mL to 100 μg/mL were prepared, analyzed by LC-MS and used as a calibration curve to correlate peak area of the samples to concentration.
# as §1, with “The Hill equation used to fit the data from the voltage-clamp and the optic nerve experiments was as follows: y=y0+(yf−y0)*x^n/(k^n+x^n); where n refers to the Hill coefficient (typically 1±0.1) and k refers to EC50 or IC50. y0 and yf refers to the origin and final ordinate values and were fixed at 1±0.1 or 0±0.1 depending on the experiment. EC50=10^<log” for “EC50=10^<log”
# [7] = Brain distribution of [^3H] 4-AP in LPC-injected mice by autoradiography; format: in vivo; conditions: [^3H] 4-AP 0.4 μCi/g i.v., 20-60 min
# Description: The inventors conducted an experiment to evaluate if 4-AP selectively localizes in demyelinated (injured) areas. […] The lesions were caused by prior injection of lysophosphatidylcholine (LPC), also called lysolecithin, into their brains, which causes focal demyelination at the site of injection. Two days after LPC injection, at the peak of demyelination, the animals were injected with [^3H] […] Twenty to sixty minutes after injection of [^3H] 4-AP the mice were euthanized and their brains were dissected and frozen. The frozen brains were then cut into 20 μm sections using a cryostat and the sections mounted in slides. The slides were then exposed to radiation sensitive X-ray film at −80° C. in the dark for forty days to capture the distribution of radioactivity coming from [^3H] 4-AP throughout the brain.
# After autoradiographic exposure, the slides were stained for myelin basic protein (MBP) using immunohistochemistry and imaged using fluorescent microscopy to determine the areas of demyelination.
# [8] = system: K^+ channels; conditions: cited from earlier work
# T1 sequence (P08510 whole entry): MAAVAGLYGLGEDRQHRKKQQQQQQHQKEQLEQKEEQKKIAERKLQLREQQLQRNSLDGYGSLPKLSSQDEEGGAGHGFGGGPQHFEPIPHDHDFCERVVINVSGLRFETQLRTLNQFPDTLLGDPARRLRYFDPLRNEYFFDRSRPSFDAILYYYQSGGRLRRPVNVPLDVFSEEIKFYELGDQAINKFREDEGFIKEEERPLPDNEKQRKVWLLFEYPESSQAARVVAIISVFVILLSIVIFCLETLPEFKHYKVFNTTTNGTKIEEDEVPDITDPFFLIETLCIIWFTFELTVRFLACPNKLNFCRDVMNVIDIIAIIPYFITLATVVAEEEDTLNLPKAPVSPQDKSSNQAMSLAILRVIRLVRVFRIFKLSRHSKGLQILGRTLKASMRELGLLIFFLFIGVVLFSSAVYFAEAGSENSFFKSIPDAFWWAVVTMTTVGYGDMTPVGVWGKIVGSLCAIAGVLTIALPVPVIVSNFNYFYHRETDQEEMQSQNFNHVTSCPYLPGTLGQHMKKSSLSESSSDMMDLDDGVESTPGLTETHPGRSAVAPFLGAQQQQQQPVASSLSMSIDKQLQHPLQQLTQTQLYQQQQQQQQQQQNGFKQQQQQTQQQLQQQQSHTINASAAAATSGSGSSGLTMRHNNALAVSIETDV
smiles,measurement,setting,value
"Nc1ccnc(F)c1 [2-F-4-AP, 2-fluoro-4-aminopyridine]",fold less potent than 4-AP,[1],at least a hundred fold-less potent
same,IC50,[1],> 10000 µM
same,effect on CAP,[2]; hypomyelinated optic nerve,no effect
same,effects in mice,[3],did not cause any effects
same,Effect,"[3]; i.p., 1920 μmol/kg",No effect
"Nc1ccncc1CCF [3-EtF-4-AP, 3-fluoroethyl-4-aminopyridine]",fold less potent than 4-AP,[1],at least a hundred fold-less potent
same,IC50,[1],> 10000 µM
"Nc1ccncc1CF [3-MeF-4-AP, 3-fluoromethyl-4-aminopyridine]",fold less potent than 4-AP,[1],around 10 fold
same,IC50,[1],7450 µM
same,times less potent than 4-AP,[1]; voltage-clamp and optic nerve experiments together,6-20 times
same,EC50,[2],286 µM
same,Effect,"[3]; i.p., 30 μmol/kg",No effect
same,Effect,"[3]; i.p., 60 μmol/kg",Very mild tremor. Normal after 30 min
same,"duration of effect (tremors, seizures or jerks)","[3]; i.p., 90 μmol/kg",~45 min
same,Effect,"[3]; i.p., 90 μmol/kg",Tremor and occasional jerks that last ca.
same,duration of tremor and seizures,"[3]; i.p., 120 μmol/kg",min post-injection and last ca. 45 min.
same,mice died of seizure,"[3]; i.p., 120 μmol/kg",1 of 5 mice died of seizure
same,start of tremor and seizures post-injection,"[3]; i.p., 120 μmol/kg",5 min
same,Effect,"[3]; i.p., 120 μmol/kg",Severe tremor and seizures
same,in vivo potency compared with 4-AP,"[3]; i.p., mice",slightly less potent than 4-AP
"Nc1ccncc1CO [3-MeOH-4-AP, 3-methanol-4-aminopyridine, reference compound]",IC50,[1],4380 µM
same,EC50,[2],386 µM
same,effects in mice,[3],did not cause any effects
same,Effect,"[3]; i.p., 960 μmol/kg",No effect
"Nc1ccncc1 [4-AP, 4-aminopyridine, reference compound]",EC50,[2],59.2 µM
same,increase in CAP amplitude,[2]; hypomyelinated nerves,2-4 fold
same,increase in CAP amplitude,[4],around 5%
same,Effect,"[3]; i.p., 30 μmol/kg","Mild tremor, mouse quiet"
same,Effect,"[3]; i.p., 60 μmol/kg","Severe tremor, mild jerks, salivation"
same,duration of tremors and seizures,"[3]; i.p., 90 μmol/kg",~2 h
same,start of tremors and seizures post-injection,"[3]; i.p., 90 μmol/kg (highest dose)",10 min
same,Effect,"[3]; i.p., 90 μmol/kg",Severe tremors and seizures that start
same,Pe: permeability coefficient across artificial membrane,[5],0.236 ± 0.003 ×10⁻⁶ cm/s
same,Kp,"[6]; brain and plasma, read-out: Cbrain/Cplasma (maximum in the brain over maximum in plasma)",0.1 ± 0.05
same,half-life,"[6]; brain, read-out: half-life in brain (converted)",1.9 h
same,half-life,"[6]; plasma, read-out: half-life in plasma (converted)",0.33 h
same,brain localization by autoradiography,[7],localizes to demyelinated areas but not myelinated areas
same,in vitro affinity,[8]; in vitro,~250 µM
same,concentration active in vivo,[8]; in vivo,~0.5 µM
